Several values for one entry are separate records, joined by “and”; a condition that tells them apart may be missing. Identical values can stand only once.
What was measured:
CDK2 = target: T1, CDK2 (Homo sapiens, UniProt P24941); experiment: CDK2 kinase activity assay (Hot-Spot); assay type: biochemical; settings: 10 μM ATP; mean ± SD, three independent experiments
T1 construct: purchased Reaction Biology Corp
Procedure: (§1) Activities of kinases were determined using Hot-SpotSM kinase assay which was performed by Reaction Biology Corp. (Malvern PA, USA) as described previously.

CDK4 = target: T2, CDK4 (Homo sapiens, UniProt P11802); experiment: CDK4 kinase activity assay (Hot-Spot); assay type: biochemical; settings: 10 μM ATP; mean ± SD, three independent experiments
T2 construct: purchased Reaction Biology Corp
Procedure: as §1

FLT3 = target: T3, FLT3 (Homo sapiens, UniProt P36888); experiment: FLT3 kinase activity assay (Hot-Spot); assay type: biochemical; settings: 10 μM ATP; mean ± SD, three independent experiments
T3 construct: purchased Reaction Biology Corp
T3 sequence (P36888 27-993): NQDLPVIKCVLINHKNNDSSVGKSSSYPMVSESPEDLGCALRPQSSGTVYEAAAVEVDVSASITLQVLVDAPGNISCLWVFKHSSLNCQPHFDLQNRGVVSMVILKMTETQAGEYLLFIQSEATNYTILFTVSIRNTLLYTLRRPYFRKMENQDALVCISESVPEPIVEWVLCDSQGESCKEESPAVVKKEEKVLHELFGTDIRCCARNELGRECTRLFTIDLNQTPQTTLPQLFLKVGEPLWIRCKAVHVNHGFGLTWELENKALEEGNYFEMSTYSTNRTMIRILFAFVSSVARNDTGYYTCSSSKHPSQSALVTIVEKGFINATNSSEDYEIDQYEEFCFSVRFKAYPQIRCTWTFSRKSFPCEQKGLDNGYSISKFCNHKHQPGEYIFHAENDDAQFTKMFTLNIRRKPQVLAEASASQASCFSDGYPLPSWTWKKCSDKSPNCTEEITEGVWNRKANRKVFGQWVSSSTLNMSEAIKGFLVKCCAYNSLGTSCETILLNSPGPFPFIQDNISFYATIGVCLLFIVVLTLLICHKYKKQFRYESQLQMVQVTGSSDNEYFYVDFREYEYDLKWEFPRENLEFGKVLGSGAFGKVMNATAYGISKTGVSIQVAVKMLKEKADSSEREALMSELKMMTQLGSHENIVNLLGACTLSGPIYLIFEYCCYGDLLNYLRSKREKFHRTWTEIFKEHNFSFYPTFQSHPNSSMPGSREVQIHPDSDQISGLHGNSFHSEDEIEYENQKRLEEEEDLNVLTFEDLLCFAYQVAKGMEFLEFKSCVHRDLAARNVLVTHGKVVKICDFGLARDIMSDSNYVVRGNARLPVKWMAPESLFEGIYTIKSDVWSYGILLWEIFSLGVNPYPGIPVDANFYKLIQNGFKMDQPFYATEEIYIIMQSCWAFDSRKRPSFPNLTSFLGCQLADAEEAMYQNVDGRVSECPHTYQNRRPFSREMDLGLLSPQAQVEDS
Procedure: as §1

MV4-11 = experiment: Cell growth inhibition assay (CellTiter-Glo); assay type: cell-based; settings: Homo sapiens, 72 h, highest test concentration 1 μM, mean ± SD, three independent experiments
Procedure: The human AML cell line MV4-11 was purchased from the American Type Culture Collection (ATCC) (Manassas, VA, USA). MV4-11 was cultured in IMDM media (Corning, Crown Bioscience Inc., Taicang, China) with 10% FBS and supplemented with 2% L-glutamine and 1% pen/strep. The MV4-11 cell line was maintained in culture media at 37 °C with 5% CO2. The effects of target compounds on MV4-11 proliferation was performed by Crown Bioscience Inc. Cells were grown in 96-well culture plates (10,000/well). The compounds of various concentrations were added into the plates. Cell proliferation was determined after treatment with compounds for 72 h. Cell viability was measured using the CellTiter-Glo assay (Promega, Crown Bioscience Inc., Taicang, China) according to the manufacturer’s instructions, and luminescence was measured in a multilabel reader (Envision2014, PerkinElmer, Crown Bioscience Inc., Taicang, China). Data were normalized to the control group (DMSO) and represented by the mean of three independent measurements with standard error of <20%. IC50 values were calculated using Prism 5.0 (GraphPad Software, San Diego, CA, USA).

BaF3 (FLT3 (ITD-F691L)) = experiment: Antiproliferative activity in BaF3 cells transformed with FLT3-ITD-F691L; assay type: cell-based; settings: Mus musculus, Table S2

T2 sequence (P11802 whole entry): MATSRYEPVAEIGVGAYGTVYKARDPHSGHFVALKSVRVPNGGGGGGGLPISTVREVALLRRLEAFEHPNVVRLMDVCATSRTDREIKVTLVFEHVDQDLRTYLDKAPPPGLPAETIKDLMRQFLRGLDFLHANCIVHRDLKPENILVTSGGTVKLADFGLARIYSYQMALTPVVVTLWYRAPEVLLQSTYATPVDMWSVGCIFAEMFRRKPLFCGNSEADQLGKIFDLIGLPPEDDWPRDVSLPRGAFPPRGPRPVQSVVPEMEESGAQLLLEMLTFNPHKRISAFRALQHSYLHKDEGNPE
T2 sequence (P24385 whole entry partner): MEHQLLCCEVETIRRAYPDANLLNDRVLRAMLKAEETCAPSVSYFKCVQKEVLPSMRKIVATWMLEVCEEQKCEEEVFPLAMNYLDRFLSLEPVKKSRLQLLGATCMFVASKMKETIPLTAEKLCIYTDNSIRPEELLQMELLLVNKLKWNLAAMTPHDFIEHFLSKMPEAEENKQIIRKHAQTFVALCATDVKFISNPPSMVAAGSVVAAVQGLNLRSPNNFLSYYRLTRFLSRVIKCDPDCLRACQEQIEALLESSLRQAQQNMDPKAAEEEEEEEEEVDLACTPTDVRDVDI

Row | Compound | IC50 (CDK2) | IC50 (CDK4) | IC50 (FLT3) | melting point | IC50 (MV4-11) | IC50 (BaF3 (FLT3 (ITD-F691L)))
1 | O=C(Nc1ccccc1)c1n[nH]cc1Nc1ncnc2[nH]ccc12 [Compound 3a] | 0.2 ± 0.01 nM | 34.1 ± 0.94 nM | 5.1 ± 0.46 nM |  |  | 
2 | O=C(Nc1ccncc1)c1n[nH]cc1Nc1ncnc2[nH]ccc12 [Compound 3b] | 4.31 ± 0.91 nM | 54.2 ± 1.26 nM | 5.83 ± 0.74 nM |  |  | 
3 | CC(C)(C)OC(=O)N1CCC(NC(=O)c2n[nH]cc2Nc2ncnc3[nH]ccc23)CC1 [Compound 3c] | 32.8 ± 1.34 nM | 87.1 ± 1.26 nM | 88.8 ± 1.06 nM | 268 to 269 °C |  | 
4 | O=C(NC1CCNCC1)c1n[nH]cc1Nc1ncnc2[nH]ccc12 [Compound 3d] | 63.2 ± 0.91 nM | 77.4 ± 1.1 nM | 74.3 ± 1.21 nM |  |  | 
5 | O=C(Nc1ccc(C(=O)N2CCOCC2)cc1)c1n[nH]cc1Nc1ncnc2sccc12 [Compound 8a] | 10.4 ± 0.41 nM | 33 ± 0.94 nM | 17.8 ± 0.89 nM | 243 to 244 °C |  | 
6 | CN1CCN(C(=O)c2ccc(NC(=O)c3n[nH]cc3Nc3ncnc4sccc34)cc2)CC1 [Compound 8b] | 8.42 ± 0.52 nM | 30.1 ± 0.99 nM | 19.18 ± 0.18 nM | 280 to 281 °C | 35.2 ± 0.83 nM | 
7 | CN1CCCN(c2cccc(NC(=O)c3n[nH]cc3Nc3ncnc4[nH]ccc34)c2)CC1 [Compound 8e] | 5.49 ± 0.42 nM | 51 ± 0.88 nM | 2.71 ± 0.31 nM | 215 to 216 °C | 38.3 ± 1.21 nM | 
8 | O=C(Nc1ccc(N2CC3CC2CN3)cc1)c1n[nH]cc1Nc1ncnc2sccc12 (centres unmarked) [Compound 8i] | 24.5 ± 0.57 nM | 9.17 ± 0.33 nM | 3.24 ± 0.14 nM |  | 27.2 ± 0.43 nM | 
9 | O=C(Nc1ccc(N2CC3CC2CN3)cc1)c1n[nH]cc1Nc1ncnc2[nH]ccc12 (centres unmarked) [Compound 8j, N-(4-(2,5-Diazabicyclo[2.2.1]heptan-2-yl)phenyl)-4-((7 H-pyrrolo[2,3-d]pyrimidin-4-yl)amino)-1H-pyrazole-3-carboxamide] | 9.64 ± 0.46 nM | 17.8 ± 0.82 nM | 2.81 ± 0.11 nM | 248 to 249 °C | 21.4 ± 0.56 nM | 
10 | CN1CCN(Cc2ccc(NC(=O)c3n[nH]cc3Nc3ncnc4[nH]ccc34)cc2)CC1 [FN-1501, 4-((7H-Pyrrolo[2,3-D]Pyrimidin-4-Yl)Amino)-N-(4-((4-Methylpiperazin-1-Yl)Methyl)Phenyl)-1H-Pyrazole-3-Carboxamide, reference compound] | 1.02 nM and 2.33 nM | 0.39 nM and 1.02 nM |  |  | 9 ± 0.27 nM | 55.9 nM

Now from value to compound:

Row | IC50 (CDK2) | IC50 (CDK4) | IC50 (FLT3) | melting point | IC50 (MV4-11) | IC50 (BaF3 (FLT3 (ITD-F691L))) | Compound
11 | 3.51 ± 0.19 nM | 2.41 ± 0.21 nM | 0.176 ± 0.09 nM | 223 to 224 °C | 4.28 ± 0.35 nM |  | CN1CCCN(c2ccc(NC(=O)c3n[nH]cc3Nc3ncnc4sccc34)cc2)CC1 [Compound 8c]
12 | 2.32 ± 0.014 nM | 5.32 ± 0.31 nM | 0.262 ± 0.01 nM | 263 to 264 °C | 9.5 ± 0.01 nM |  | CN1CCCN(c2ccc(NC(=O)c3n[nH]cc3Nc3ncnc4[nH]ccc34)cc2)CC1 [Compound 8d]
13 | 31.7 ± 0.55 nM | 67.3 ± 1.09 nM | 8.07 ± 0.21 nM | > 300 °C | 54.1 ± 1.73 nM |  | CN1CCCN(c2cccc(NC(=O)c3n[nH]cc3Nc3ncnc4sccc34)c2)CC1 [Compound 8f]
14 | 3.74 ± 0.16 nM | 10.6 ± 0.24 nM | 1.945 ± 0.013 nM | 303 to 304 °C | 16 ± 0.43 nM |  | O=C(Nc1ccc(N2CCOCC2)cc1)c1n[nH]cc1Nc1ncnc2[nH]ccc12 [Compound 8g]
15 | 0.282 ± 0.013 nM | 1.19 ± 0.09 nM | 0.038 ± 0.001 nM | 304 to 305 °C | 7.3 ± 0.33 nM |  | O=C(Nc1ccc(N2CCNCC2)cc1)c1n[nH]cc1Nc1ncnc2[nH]ccc12 [Compound 8h]
16 | 315.2 ± 2.3 nM | 22.3 ± 0.92 nM | 6.03 ± 0.16 nM | > 300 °C | 51.1 ± 1.34 nM |  | O=C(Nc1ccc(N2CCNCC2)cn1)c1n[nH]cc1Nc1ncnc2sccc12 [Compound 8k, N-(5-(Piperazin-1-yl)pyridin-2-yl)-4-(thieno[2,3-d]pyrimidin-4-ylamino)-1H-pyrazole-3-carboxamide]
17 | 157 ± 3.22 nM | 23.1 ± 0.55 nM | 13.8 ± 0.37 nM | 288 to 290 °C | 134 ± 1.64 nM |  | O=C(Nc1ccc(N2CCNCC2)cn1)c1n[nH]cc1Nc1ncnc2[nH]ccc12 [Compound 8l, 4-((7H-Pyrrolo[2,3-d]pyrimidin-4-yl)amino)-N-(5-(piperazin-1-yl)pyridin-2-yl)-1H-pyrazole-3-carboxamide]
18 | 98.7 ± 1.33 nM | 4.85 ± 0.2 nM | 1.88 ± 0.09 nM |  | 19.9 ± 0.74 nM |  | O=C(Nc1ccc(N2CCNCC2)cn1)c1n[nH]cc1Nc1ncnc2sc3c(c12)CCC3 [Compound 8n]
19 | 109.2 ± 1.01 nM | 1.81 ± 0.023 nM | 8.28 ± 0.12 nM |  | 45.4 ± 1.07 nM |  | O=C(Nc1ccc(N2CCNCC2)cn1)c1n[nH]cc1Nc1ncnc2sc3c(c12)CCCCC3 [Compound 8o]
20 | 86.4 ± 1.36 nM | 3.81 ± 0.26 nM | 7.45 ± 0.19 nM | 266 to 267 °C |  |  | O=C(Nc1ccc(N2CCNCC2)cn1)c1n[nH]cc1Nc1ncnc2sc3c(c12)CCCC3 [Compound 8p]
21 | 509 ± 10.3 nM | 123.4 ± 1.09 nM | 20.2 ± 0.35 nM | > 290 °C | 458 ± 9.2 nM |  | O=C(Nc1ccc(N2CCNCC2)cn1)c1n[nH]cc1Nc1ncnc2c1CCC2 [Compound 8q]
22 | 9.29 ± 0.64 nM | 24.9 ± 0.29 nM | 3.8 ± 0.1 nM | 267 to 268 °C | 3.28 ± 0.19 nM |  | O=C(Nc1ccc(N2CCOCC2)cc1)c1n[nH]cc1Nc1ncnc2sc3c(c12)CCCC3 [Compound 8r]
23 | 5.43 ± 0.41 nM | 4.36 ± 0.19 nM | 0.82 ± 0.003 nM |  | 9.13 ± 0.11 nM |  | O=C(Nc1ccc(N2CC3CC2CN3)cc1)c1n[nH]cc1Nc1ncnc2sc3c(c12)CCC3 (centres unmarked) [Compound 8s]
